Molecular target: T1, Sialic acid-binding Ig-like lectin 7 (Homo sapiens, UniProt Q9Y286)
Test: Potency index, ratio of IC50 for compound-1 to IC50 for test compound for binding affinity to human IgG1-fused human Siglec-7-FC (Gln19 to Gly357 residues) assessed as inhibition Siglec-7-Fc binding to RBC pre-incubated for 10 mins before 20 mins incubation with RBCs by flow cytometry

T1 sequence (Q9Y286 whole entry, the tested form may be a part): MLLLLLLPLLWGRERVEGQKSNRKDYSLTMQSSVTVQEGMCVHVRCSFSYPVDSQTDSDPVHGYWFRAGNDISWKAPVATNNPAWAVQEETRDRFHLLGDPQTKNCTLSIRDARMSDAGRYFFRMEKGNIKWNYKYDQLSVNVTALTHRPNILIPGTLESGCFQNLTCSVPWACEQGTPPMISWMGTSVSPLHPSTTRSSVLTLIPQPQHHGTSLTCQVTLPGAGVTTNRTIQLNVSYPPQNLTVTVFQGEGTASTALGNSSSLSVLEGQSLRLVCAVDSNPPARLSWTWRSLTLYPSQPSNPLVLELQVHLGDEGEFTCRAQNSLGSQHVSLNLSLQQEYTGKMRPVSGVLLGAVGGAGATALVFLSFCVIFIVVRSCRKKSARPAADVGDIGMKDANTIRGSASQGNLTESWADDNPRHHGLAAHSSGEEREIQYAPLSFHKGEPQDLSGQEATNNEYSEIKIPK

| SMILES | Ratio IC50 |
| --- | --- |
| CNC(=O)C(=O)NC[C@@H](O)[C@@H](O)[C@@H]1O[C@@](OC)(C(=O)O)C[C@H](O)[C@H]1NC(C)=O | < 2 |
| CO[C@]1(C(=O)O)C[C@H](O)[C@@H](NC(C)=O)[C@H]([C@H](O)[C@H](O)CNC(=O)C(=O)Nc2ccccc2)O1 | 58 |
| CO[C@]1(C(=O)O)C[C@H](O)[C@@H](NC(C)=O)[C@H]([C@H](O)[C@H](O)CNC(=O)C(=O)NC(C)C)O1 | < 2 |
| CO[C@]1(C(=O)O)C[C@H](O)[C@@H](NC(C)=O)[C@H]([C@H](O)[C@H](O)CNC(=O)C(=O)NCc2ccc(-c3ccccc3)cc2)O1 | 8 |
| CO[C@]1(C(=O)O)C[C@H](O)[C@@H](NC(C)=O)[C@H]([C@H](O)[C@H](O)CNC(=O)C(=O)NCc2ccccc2)O1 | 8 |
| CO[C@]1(C(=O)O)C[C@H](O)[C@@H](NC(C)=O)[C@H]([C@H](O)[C@H](O)CNC(=O)C(N)=O)O1 | 4.1 |
| CCC(C)NC(=O)C(=O)NC[C@@H](O)[C@@H](O)[C@@H]1O[C@@](OC)(C(=O)O)C[C@H](O)[C@H]1NC(C)=O (mixture of isomers) | < 2 |
| CO[C@]1(C(=O)O)C[C@H](O)[C@@H](NC(C)=O)[C@H]([C@H](O)[C@H](O)CNC(=O)C(=O)NC(C)(C)C)O1 | < 2 |
| CCNC(=O)C(=O)NC[C@@H](O)[C@@H](O)[C@@H]1O[C@@](OC)(C(=O)O)C[C@H](O)[C@H]1NC(C)=O | < 2 |
| CO[C@]1(C(=O)O)C[C@H](O)[C@@H](NC(C)=O)[C@H]([C@H](O)[C@H](O)CO)O1 | 1 |

Molecular target: T1, Sialic acid-binding Ig-like lectin 7
Test: Binding affinity to human IgG1-fused human Siglec-7-FC (Gln19 to Gly357 residues) assessed as inhibition Siglec-7-Fc binding to RBC pre-incubated for 10 mins before 20 mins incubation with RBCs by flow cytometry

| SMILES | IC50 |
| --- | --- |
| CO[C@]1(C(=O)O)C[C@H](O)[C@@H](NC(C)=O)[C@H]([C@H](O)[C@H](O)CNC(=O)C(N)=O)O1 | 1.64 mM |
| CO[C@]1(C(=O)O)C[C@H](O)[C@@H](NC(C)=O)[C@H]([C@H](O)[C@H](O)CO)O1 | 8.07 mM |
